Reference: article PMC8152971, “Valeriana rigida Ruiz & Pav. Root Extract: A New Source of Caffeoylquinic Acids with Antioxidant and Aldose Reductase Inhibitory Activities” (Foods, 2021)
Several values for one entry are separate records, joined by “and”; a condition that tells them apart may be missing. Equal values may be shown once. Read-outs that look alike come from different tables or passages of the source. Marks after values point to notes of the source that are not given here.

Tests used:
[1] = Partition coefficient (K upper/lower) in biphasic CCC solvent systems; format: physicochemical
Protocol: The solvent system was screened via HPLC and evaluated according to the partition coefficient (K value) of the target compounds on the principle introduced by Ito [32]. Briefly, four solvent systems comprising EtOAc, n-BuOH, […] solution to 29 mM, and then the corresponding K values of the target compounds under acidic (Kacid) or basic (Kbase) conditions were determined, as previously described: each acidified or basified solvent system was partitioned to upper layer and lower layer. Thereafter, the extract (about 1–2 mg) was prepared in a 1.5 mL tube and dissolved by adding equal volumes (each 500 µL) of the upper layer and lower layers, which were mixed by a vortex mixer and centrifuged for about 20 s using a C1301 Mini Centrifuge (Labnet International, South Korea). Next, the upper and lower phase sample solutions were respectively pipetted (each 200 µL) into a new 1.5 mL-tube and evaporated by nitrogen gas. Each sample residue was redissolved using 200 µL of MeOH and subjected to HPLC analysis with an injection volume of 20 µL. The K value was calculated as K = Aupper/Alower, where Aupper and Alower are the HPLC peak areas of the target component in the upper and lower phases, respectively.

[2] = target: T1, rat lens AR homogenate (aldose reductase) (Rattus norvegicus, UniProt P07943); test: AR inhibition assay; format: biochemical, Sprague–Dawley rats
T1 construct: the lenses were removed from the eyes, ground in a mortar; from tissue; host or cells: lens of Sprague–Dawley rats
Protocol: The eyes of 10-week Sprague–Dawley rats (250–280 g) were removed and frozen at −70 °C before use. Thereafter, the lenses were removed from the eyes, ground in a mortar (precooled at −70 °C), and extracted using 0.1 M PBS of pH 6.2 (around 0.5 mL of buffer per two frozen rat lenses).
The AR inhibitory activities of the extract and the separated compounds were determined as described previously. […] Next, the reaction was initiated by adding 20 µL of the substrate (DL-glyceraldehyde dimmer, 25 mM in 0.1 M PBS of pH 7.0), and the values were further measured for 6 min at 340 nm (OD340) using an Epoch microplate spectrophotometer (BioTek Instruments, Winooski, VT, USA). […] The DMSO used for sample preparation was less than 0.4% (v/v) in the reaction system.

[3] = ABTS radical scavenging assay; settings: Trolox equivalent antioxidant capacity, mean ± SD, n ≥ 3
Protocol: The experiment was conducted as previously described. In brief, 3.5 mM of potassium persulfate aqueous solution was used to prepare 0.2 mM of ABTS diammonium salt. The solution was diluted 10-fold using distilled water and allowed to produce ABTS radicals (ABTS^+) by keeping the solution in the dark for 14 h at room temperature. […] Equation (1) was used to calculate the ABTS^+ scavenging activity (%), where Acontrol is the absorbance of ABTS^+ solution free of samples, Asample is the absorbance of ABTS^+ solution incubated with a sample, Ablank1 is the absorbance of the test sample free of ABTS^+ solution, and Ablank2 is the absorbance of the diluted potassium persulfate solution.

[4] = Oxygen radical absorbance capacity (ORAC) assay; settings: Trolox equivalent antioxidant capacity, mean ± SD, n ≥ 3
Protocol: The oxygen radical absorbance capacity (ORAC) assay was performed as previously described. Briefly, 0. […] Next, 60 µL of AAPH (40 mM) was added to generate peroxyl radicals to initiate the reaction.

[5] = DPPH radical scavenging assay; settings: Trolox equivalent antioxidant capacity, mean ± SD, n ≥ 3
Protocol: The experiment was carried out as previously described. […] Thereafter, the absorbance was measured using a microplate reader (EL800, Bio-Tek Instruments, Winooski, VT, USA) at 570 nm.

[6] = Hypochlorous acid (HOCl) scavenging assay
Protocol: The HOCl scavenging assay was adapted from a previous study using 1,8-diaminonaphthalene as a fluorescence probe for hypochlorite. […] Next, the fluorescence intensity (λex = 360 ± 20 nm, λem = 460 ± 20 nm) was immediately measured using a microplate fluorescence reader (FLx800; Bio-Tek, Winooski, VT, USA). Trolox (final concentration 25–100 µg/mL) was used as a reference antioxidant.

[7] = EtOAc/H2O, 1:1, 208 mM formic acid
[8] = EtOAc/n-BuOH/H2O, 2:3:5, 30 mM ammonia
[9] = EtOAc/n-BuOH/H2O, 2:3:5, 208 mM formic acid
[10] = EtOAc/n-BuOH/H2O, 3:2:5, 30 mM ammonia
[11] = EtOAc/n-BuOH/H2O, 3:2:5, 208 mM formic acid
[12] = EtOAc/n-BuOH/H2O, 4:1:5, 30 mM ammonia
[13] = EtOAc/n-BuOH/H2O, 4:1:5, 208 mM formic acid
[14] = read-out: AR inhibitory Activity Inhibition (%)
[15] = rat lens AR, read-out: AR inhibitory Activity IC50

## O=C(/C=C/c1ccc(O)c(O)c1)O[C@@H]1C[C@](O)(C(=O)O)C[C@@H](O)[C@H]1O [5-CQA (2), 5-O-caffeoylquinic acid]
[1]; EtOAc/H2O, 1:1, 30 mM ammonia
  K(upper/lower) Value: 0.01
[1]; [7]
  K(upper/lower) Value: 0.95
[1]; [8]
  K(upper/lower) Value: 0.01
[1]; [9]
  K(upper/lower) Value: 6.86
[1]; [10]
  K(upper/lower) Value: 0.03
[1]; [11]
  K(upper/lower) Value: 5.48
[1]; [12]
  K(upper/lower) Value: 0.01
[1]; [13]
  K(upper/lower) Value: 2.43
[2]; [14]
  inhibition at 0.391 µM: 30.8 ± 2.18%
  inhibition at 0.781 µM: 44.2 ± 1.17%
[2]; 1.563 µM, read-out: AR inhibitory Activity Inhibition (%)
  inhibition at 1.563 µM: 63.8 ± 2.55%
[2]; [15]
  IC50: 910 nM

## O=C(/C=C/c1ccc(O)c(O)c1)O[C@@H]1C[C@](O)(C(=O)O)C[C@@H](OC(=O)/C=C/c2ccc(O)c(O)c2)[C@H]1O [3,5-diCQA (5), 3,5-di-O-caffeoylquinic acid]
[3]
  TE, ABTS: 0.89 ± 0.05 ^d µmol Trolox Equivalents Per µmol Compound
[4]
  TE, ORAC: 2.13 ± 0.07 ^b µmol Trolox Equivalents Per µmol Compound
[1]; EtOAc/H2O, 1:1, 30 mM ammonia
  K(upper/lower) Value: 0.01
[1]; [7]
  K(upper/lower) Value: 7.71
[1]; [8]
  K(upper/lower) Value: 0.12
[1]; [9]
  K(upper/lower) Value: 38.56
[1]; [10]
  K(upper/lower) Value: 0.01
[1]; [11]
  K(upper/lower) Value: 35.91
[1]; [12]
  K(upper/lower) Value: 0.01
[1]; [13]
  K(upper/lower) Value: 14.23
[2]; 0.098 µM, read-out: AR inhibitory Activity Inhibition (%)
  inhibition at 0.098 µM: 35.4 ± 1.33%
[2]; [14]
  inhibition at 0.195 µM: 62.3 ± 1.33%
  inhibition at 0.391 µM: 75.6 ± 1.33%
[5]
  TE, DPPH: 0.86 ± 0.08 ^c µmol Trolox Equivalents Per µmol Compound
[6]; 3.125 µM
  HOCl Scavenging Activity Inhibition (%): 49.56 ± 1.23%
[6]; 6.25 µM
  HOCl Scavenging Activity Inhibition (%): 56.13 ± 3.01%
[6]; 12.5 µM
  HOCl Scavenging Activity Inhibition (%): 62.86 ± 1.23%
[6]; linear regression
  IC50: 2930 nM

## O=C(/C=C/c1ccc(O)c(O)c1)O[C@@H]1C[C@](O)(C(=O)O)C[C@@H](OC(=O)/C=C/c2ccc(O)c(O)c2)[C@H]1OC(=O)/C=C/c1ccc(O)c(O)c1 [3,4,5-triCQA (7), 3,4,5-tri-O-caffeoylquinic acid]
[3]
  TE, ABTS: 1.31 ± 0.05 ^a µmol Trolox Equivalents Per µmol Compound
[4]
  TE, ORAC: 1.95 ± 0.15 ^b µmol Trolox Equivalents Per µmol Compound
[1]; EtOAc/H2O, 1:1, 30 mM ammonia
  K(upper/lower) Value: 0.02
[1]; [7]
  K(upper/lower) Value: 23.71
[1]; [8]
  K(upper/lower) Value: 0.40
[1]; [9]
  K(upper/lower) Value: 29.51
[1]; [10]
  K(upper/lower) Value: 0.22
[1]; [11]
  K(upper/lower) Value: 26.44
[1]; [12]
  K(upper/lower) Value: 0.03
[1]; [13]
  K(upper/lower) Value: 27.56
[2]; [14]
  inhibition at 0.195 µM: 27.6 ± 2.43%
  inhibition at 0.391 µM: 49.7 ± 0.94%
  inhibition at 0.781 µM: 69.8 ± 0.77%
[2]; [15]
  IC50: 400 nM
[5]
  TE, DPPH: 1.28 ± 0.04 ^a µmol Trolox Equivalents Per µmol Compound
[6]; 6.25 µM
  HOCl Scavenging Activity Inhibition (%): 35.39 ± 1.17%
[6]; 12.5 µM
  HOCl Scavenging Activity Inhibition (%): 52.93 ± 1.02%
[6]; 25 µM
  HOCl Scavenging Activity Inhibition (%): 84.32 ± 3.39%
[6]; linear regression
  IC50: 11700 nM

## Cc1c(C)c2c(c(C)c1O)CCC(C)(C(=O)O)O2 (centres unmarked) [Trolox, reference compound]
[6]; 6.25 µg/mL
  HOCl Scavenging Activity Inhibition (%): 40.76 ± 0.39%
[6]; 12.5 µg/mL
  HOCl Scavenging Activity Inhibition (%): 66.53 ± 2.54%
[6]; 25 µM
  HOCl Scavenging Activity Inhibition (%): 40.76 ± 0.39%
[6]; 25 µg/mL
  HOCl Scavenging Activity Inhibition (%): 97.07 ± 5.45%
[6]; 50 µM
  HOCl Scavenging Activity Inhibition (%): 66.53 ± 2.54%
[6]; 100 µM
  HOCl Scavenging Activity Inhibition (%): 97.07 ± 5.45%
[6]; linear regression
  HOCl Scavenging Activity IC50: 8.52 µg/mL
  IC50: 34000 nM

## C[C@@H]1O[C@@H](Oc2c(-c3ccc(O)c(O)c3)oc3cc(O)cc(O)c3c2=O)[C@H](O)[C@H](O)[C@H]1O [Quercitrin, quercitrin, reference compound]
[2]; AR Inhibitory Activity IC50, rat lens AR
  IC50: 103 nM
[2]; AR inhibitory Activity IC50, rat lens AR
  IC50: 102 nM and 100 nM
[2]; [14]
  inhibition at 0.056 µg/mL: 62.33 ± 0.44%
  inhibition at 0.063 µM: 32.6 ± 2.7%
  inhibition at 0.112 µg/mL: 74.6 ± 1.11%
  inhibition at 0.125 µM: 62.33 ± 0.44%
  inhibition at 0.25 µM: 74.6 ± 1.11%

## CC(/C=C1\SC(=S)N(CC(=O)O)C1=O)=C\c1ccccc1 [Epalrestat, epalrestat, reference compound]
[2]; [14]
  inhibition at 0.01 µg/mL: 21.7 ± 1.25%
  inhibition at 0.02 µg/mL: 79.3 ± 1.35%
  inhibition at 0.031 µM: 21.7 ± 1.25%
  inhibition at 0.04 µg/mL: 91.8 ± 1.84%
  inhibition at 0.063 µM: 79.3 ± 1.35%
  inhibition at 0.125 µM: 91.8 ± 1.84%

## O=c1c(O)c(-c2ccc(O)c(O)c2)oc2cc(O)cc(O)c12 [Quercetin, quercetin, reference compound]
[2]; [14]
  inhibition at 1.889 µg/mL: 34.8 ± 0.51%
  inhibition at 3.778 µg/mL: 46 ± 4.49%
  inhibition at 6.25 µM: 34.8 ± 0.51%
  inhibition at 7.556 µg/mL: 67 ± 3.22%
  inhibition at 12.5 µM: 46 ± 4.49%
  inhibition at 25 µM: 67 ± 3.22%

## O=C(/C=C/c1ccc(O)c(O)c1)O[C@@H]1C[C@@](O)(C(=O)O)C[C@@H](O)[C@@H]1O [3-CQA (1), 3-O-caffeoylquinic acid]
[1]; EtOAc/H2O, 1:1, 30 mM ammonia
  K(upper/lower) Value: 0.02
[1]; [7]
  K(upper/lower) Value: 0.49
[1]; [8]
  K(upper/lower) Value: 0.01
[1]; [9]
  K(upper/lower) Value: 2.49
[1]; [10]
  K(upper/lower) Value: 0.05
[1]; [11]
  K(upper/lower) Value: 2.03
[1]; [12]
  K(upper/lower) Value: 0.00
[1]; [13]
  K(upper/lower) Value: 1.36
[1]; n-BuOH/H2O, 1:1
  K(upper/lower) Value: 0.04
[1]; n-BuOH/H2O, 1:1 + 8.7 mM acetic acid
  K(upper/lower) Value: 0.73
[2]; 1.5625 µM, read-out: AR inhibitory Activity Inhibition (%)
  inhibition at 1.5625 µM: 29.4 ± 3.4%
[2]; 3.125 µM, read-out: AR inhibitory Activity Inhibition (%)
  inhibition at 3.125 µM: 45.8 ± 1.75%
[2]; 6.25 µM, read-out: AR inhibitory Activity Inhibition (%)
  inhibition at 6.25 µM: 60.1 ± 1.22%

## COc1ccc(-c2cc(=O)c3c(O)cc(O)cc3o2)cc1 [Acacetin (8), acacetin]
[2]; 25 µM, read-out: AR inhibitory Activity Inhibition (%)
  inhibition at 25 µM: 12.3 ± 4.22%
[2]; 50 µM, read-out: AR inhibitory Activity Inhibition (%)
  inhibition at 50 µM: 24 ± 0.63%
[2]; 100 µM, read-out: AR inhibitory Activity Inhibition (%)
  inhibition at 100 µM: 36.3 ± 3.78%
